From patent publication US6015805A, “17β-nitro-11β-arylisteroids and their derivatives having agonist or antagonist hormonal properties” (Research Triangle Research North Carolina, priority 1999, dated 2000)

Tests used:
[1] = target: T1, human progesterone hormone receptor (hPR) (Homo sapiens, UniProt P06401); assay: Receptor binding (human), inhibition of [^3 H]-R5020 binding; conditions: cytosol from human T-47D cells; 0.4 nM [^3 H]-R5020; 4 hours at 4° C.
T1 construct: The receptor was obtained in cytosol from human T-47D breast cells; endogenous in cells; host or cells: T-47D human breast cells (cytosol)
T1 sequence (P06401 1-933): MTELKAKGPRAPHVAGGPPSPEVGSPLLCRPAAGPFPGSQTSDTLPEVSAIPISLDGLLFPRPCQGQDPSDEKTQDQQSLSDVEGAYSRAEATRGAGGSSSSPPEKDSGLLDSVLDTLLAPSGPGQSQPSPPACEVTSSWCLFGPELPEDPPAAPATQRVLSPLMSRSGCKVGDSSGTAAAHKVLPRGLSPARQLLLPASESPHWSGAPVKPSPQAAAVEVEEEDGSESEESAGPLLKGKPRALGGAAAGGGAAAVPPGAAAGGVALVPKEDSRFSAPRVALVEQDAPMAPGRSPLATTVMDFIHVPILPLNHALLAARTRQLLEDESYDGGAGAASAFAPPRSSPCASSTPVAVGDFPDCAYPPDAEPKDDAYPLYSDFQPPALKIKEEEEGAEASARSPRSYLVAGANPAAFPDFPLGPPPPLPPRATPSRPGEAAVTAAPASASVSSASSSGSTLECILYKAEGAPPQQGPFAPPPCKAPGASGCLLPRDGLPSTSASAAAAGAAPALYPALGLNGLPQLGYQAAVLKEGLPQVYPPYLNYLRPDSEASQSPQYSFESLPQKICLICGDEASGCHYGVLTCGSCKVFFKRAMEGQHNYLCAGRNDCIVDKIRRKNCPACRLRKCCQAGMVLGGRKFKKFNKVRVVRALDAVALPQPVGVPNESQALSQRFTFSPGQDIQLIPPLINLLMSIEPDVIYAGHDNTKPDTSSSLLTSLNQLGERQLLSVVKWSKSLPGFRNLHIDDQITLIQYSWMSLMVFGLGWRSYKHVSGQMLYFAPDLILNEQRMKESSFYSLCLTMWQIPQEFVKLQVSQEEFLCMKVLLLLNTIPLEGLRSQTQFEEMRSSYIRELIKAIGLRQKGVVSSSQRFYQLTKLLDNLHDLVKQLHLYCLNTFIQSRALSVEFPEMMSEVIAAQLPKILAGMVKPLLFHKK
Procedure: (§1) The affinity of the compounds for hormone receptors for progestins and glucocorticoids from rabbits was determined by standard procedures similar to those that have been described in C. E. Cook, et al., Human Reproduction, Volume 9, supplement 1, pp. 32-39 (1994). However, the source of the glucocorticoid receptor was the thymus of the estrogen-primed immature female rabbit. The affinity of the compounds for the human progesterone hormone receptor was determined by standard procedures similar to those that have been described in Horwitz, et al., Cell, 28: 633-42 (1982) and Mockus, et al., Endocrinology, 110: 1564-71 (1982). The receptor was obtained in cytosol from human T-47D breast cells and [^3 H]-R5020 was used as the radioligand. T47D cells (1 billion/mL) were homogenized in TEDG buffer (10 mM Tris, 1.5 mM EDTA, 1 mM dithiothreitol, 1 mM sodium molybdate, and 10% glycerol) using a Dounce pestle A, and the homogenate was centrifuged at 34,000×g for 1 hour. The supernatant was stored at -80° C. An aliquot of receptor preparation was combined with test compound, 0.4 nM [^3 H]-R5020, and TEDG buffer to a final volume of 150 ,μL and incubated for 4 hours at 4° C. in microtiter plates. At the end of incubation 40 μL 40% polyethylene glycol and 15 μL 1% human gamma globulin was added to the incubate and the contents of each well were harvested onto double thick B filter mats (Wallac LKB) using a TomTec harvester. A film of Meltilux scintillant wax was applied to the dried filter mats and the mats were counted in a scintillation counter to determine inhibition of [^3 H]-R5020 binding. Data are expressed as lC50 values, i.e., the concentration of compound that inhibits radioligand binding by 50%.

[2] = target: T2, glucocorticoid receptor (rGR) (Oryctolagus cuniculus, UniProt P59667); assay: Receptor binding (rabbit), glucocorticoid receptor; conditions: relative to dexamethasone = 100
T2 construct: the source of the glucocorticoid receptor was the thymus of the estrogen-primed immature female rabbit; from tissue; host or cells: thymus of the estrogen-primed immature female rabbit
T2 sequence (P59667 1-772): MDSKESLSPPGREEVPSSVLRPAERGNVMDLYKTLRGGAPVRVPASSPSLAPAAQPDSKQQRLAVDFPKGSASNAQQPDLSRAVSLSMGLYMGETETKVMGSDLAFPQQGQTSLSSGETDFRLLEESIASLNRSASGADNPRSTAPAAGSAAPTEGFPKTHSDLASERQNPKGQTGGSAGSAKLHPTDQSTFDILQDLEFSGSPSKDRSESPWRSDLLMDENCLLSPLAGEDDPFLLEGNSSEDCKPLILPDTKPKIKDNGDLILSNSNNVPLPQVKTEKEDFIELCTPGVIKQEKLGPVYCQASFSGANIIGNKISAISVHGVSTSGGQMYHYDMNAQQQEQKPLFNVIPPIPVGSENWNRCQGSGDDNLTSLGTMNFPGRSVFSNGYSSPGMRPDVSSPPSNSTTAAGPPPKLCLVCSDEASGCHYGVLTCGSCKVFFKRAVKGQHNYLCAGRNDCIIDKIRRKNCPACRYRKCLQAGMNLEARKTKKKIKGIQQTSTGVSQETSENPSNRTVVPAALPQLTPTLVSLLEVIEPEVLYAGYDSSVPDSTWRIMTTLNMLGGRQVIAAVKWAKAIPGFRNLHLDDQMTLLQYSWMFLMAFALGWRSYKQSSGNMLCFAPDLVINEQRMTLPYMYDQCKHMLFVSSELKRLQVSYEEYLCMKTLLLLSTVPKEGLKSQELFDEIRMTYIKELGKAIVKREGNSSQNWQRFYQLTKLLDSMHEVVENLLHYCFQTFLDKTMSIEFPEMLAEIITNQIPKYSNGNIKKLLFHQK
Procedure: as §1

human T-47D breast cells = assay: T47D cell proliferation, antagonist format (inhibition of R5020-mediated [^3 H]-thymidine incorporation); format: cell-based; conditions: for EC50: Homo sapiens, T47D, concentration which inhibits 0.15 nM R5020-mediated proliferation by 50%; for Cell Proliferation, Antagonist Format % inhibition: maximum % inhibition, 0.15 nM R5020
Procedure: Human T-47D breast cells grown in nutrient media were incubated with the standard progestin R5020 alone or with R5020 plus test compound and then assessed by standard procedures for proliferation using incorporation of [^3 H]-thymidine as the measurement. […] The maximum % inhibition (a measure of the efficacy of the compounds) is also given. In the agonist format of this assay the compounds were tested at concentrations ranging from 0.01 to 10 nM and the maximum % stimulation at any dose is listed in Table 3.

SMILES	IC50 [1] [nM]	Relative Binding Affinity, rGR, Relative Affinity (Dexamethasone) [2]	EC50 (human T-47D breast cells) [nM]	Cell Proliferation, Antagonist Format % inhibition (human T-47D breast cells) [%]
CC1=[N+]([O-])C2(CC1)CCC1C3CCC4=CC(=O)CCC4=C3C(c3ccc(N(C)C)cc3)CC12C (stereo not drawn) [II 4-Me2 N H O H -- CH3, 3',4'-dihydro-11β-(4-(N,N-dimethylamino)phenyl)-5'-methyl-1'-oxo-spiro[estra-4,9-dien-17β,2'(2'H)-pyrrole]-3-one]	10.2	2		
CN(C)c1ccc([C@H]2C[C@@]3(C)[C@@H](CC[C@]3(CCCO)[N+](=O)[O-])[C@@H]3CCC4=CC(=O)CCC4=C32)cc1 [I 4-Me2 N H O H --(CH2)3 OH, 11β-[4-(N,N-Dimethylamino)phenyl]-17α-(3-hydroxypropyl)-17β-nitroestra-4,9-dien-3-one]	4.1	74	12	89
CC(=O)c1ccc([C@H]2C[C@@]3(C)[C@@H](CC[C@]3(CCCO)[N+](=O)[O-])[C@@H]3CCC4=CC(=O)CCC4=C32)cc1 [I 4-CH3 CO H O H --(CH2)3 OH, 11β-(4-Acetylphenyl)-17α-(3-hydroxypropyl)-17β-nitroestra-4,9-dien-3-one]	16	3	175	96
CC(=O)c1ccc([C@H]2C[C@@]3(C)[C@@H](CC[C@]3(/C=C/CO)[N+](=O)[O-])[C@@H]3CCC4=CC(=O)CCC4=C32)cc1 [I 4-CH3 CO H O H CH=CHCH2 OH, 11β-(4-acetylphenyl)-17α-(E-3-hydroxy-1-propenyl)-17β-nitroestra-4,9-dien-3-one]	26.1	4	122	86
CC#C[C@]1([N+](=O)[O-])CC[C@H]2[C@@H]3CCC4=CC(=O)CCC4=C3[C@@H](c3ccc(C(C)=O)cc3)C[C@@]21C [I 4-CH3 CO H O H --CC--CH3, 11β-(4-Acetylphenyl)-17β-nitro-17α-(1-propynyl)estra-4,9-dien-3-one]	0.8	20	3.3	90
